# Laboratory results published in ChEMBL document CHEMBL1201862, “PubChem BioAssay data set” (2004).
# Active and inactive are the calls of the source.
# Experiments:
# [1] = biological target: T1, Dual specificity protein phosphatase 6 (Rattus norvegicus, UniProt Q64346); test: inhibition of rat DUSP6 enzyme activity – biochemical, in vitro, primary screen (AID 425)
# T1 sequence (Q64346 whole entry): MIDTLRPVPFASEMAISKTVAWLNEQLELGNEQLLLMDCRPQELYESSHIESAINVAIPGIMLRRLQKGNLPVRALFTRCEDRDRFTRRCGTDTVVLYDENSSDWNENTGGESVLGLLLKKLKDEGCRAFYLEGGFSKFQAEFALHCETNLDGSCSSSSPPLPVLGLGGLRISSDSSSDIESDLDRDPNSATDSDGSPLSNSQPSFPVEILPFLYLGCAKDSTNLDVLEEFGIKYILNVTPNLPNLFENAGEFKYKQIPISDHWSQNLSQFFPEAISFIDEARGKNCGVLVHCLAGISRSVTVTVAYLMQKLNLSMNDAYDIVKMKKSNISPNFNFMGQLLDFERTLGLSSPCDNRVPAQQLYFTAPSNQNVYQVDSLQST
# [2] = Dd2 malaria parasite growth inhibition potency – SYBR Green, dry powder samples, dose response (AID 1159566); type: functional, cell-based;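 note: potency for growth inhibition with lower SYBR green DNA signal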
# [3] = growth inhibition of PfATP4-mutant resistant parasites – NITD609-resistant line, SYBR Green, dry powder, dose response (AID 1159571); type: functional, cell-based;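 note: parasites synchronized at ring stage by sorbitol before testing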
# [4] = growth inhibition of yeast DHODH-expressing 3D7 parasites – SYBR Green, dry powder samples, dose response (AID 1159570); type: functional, cell-based;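 note: parasite growth measured after 72 hours of compound exposure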
# [5] = P. falciparum Dd2 growth inhibitors, dose response, SYBR Green, cherry-picked samples (AID 1159567); type: functional, cell-based
# [6] = biological target: Voltage-gated inwardly rectifying potassium channel KCNH2 (Homo sapiens, UniProt Q12809); test: concentration-dependent hERG rescue from blockers – cell-based, thallium flux, dose response (AID 2121); type: ADME
# [7] = Dd2 parasite growth inhibition in erythrocytes – SYBR Green, dry powder samples, set 9, dose response (AID 1159568); type: functional, cell-based
# [8] = biological target: T2, Histone-lysine N-methyltransferase NSD2 (Homo sapiens, UniProt O96028); type: biochemical
# T2 sequence (O96028 whole entry): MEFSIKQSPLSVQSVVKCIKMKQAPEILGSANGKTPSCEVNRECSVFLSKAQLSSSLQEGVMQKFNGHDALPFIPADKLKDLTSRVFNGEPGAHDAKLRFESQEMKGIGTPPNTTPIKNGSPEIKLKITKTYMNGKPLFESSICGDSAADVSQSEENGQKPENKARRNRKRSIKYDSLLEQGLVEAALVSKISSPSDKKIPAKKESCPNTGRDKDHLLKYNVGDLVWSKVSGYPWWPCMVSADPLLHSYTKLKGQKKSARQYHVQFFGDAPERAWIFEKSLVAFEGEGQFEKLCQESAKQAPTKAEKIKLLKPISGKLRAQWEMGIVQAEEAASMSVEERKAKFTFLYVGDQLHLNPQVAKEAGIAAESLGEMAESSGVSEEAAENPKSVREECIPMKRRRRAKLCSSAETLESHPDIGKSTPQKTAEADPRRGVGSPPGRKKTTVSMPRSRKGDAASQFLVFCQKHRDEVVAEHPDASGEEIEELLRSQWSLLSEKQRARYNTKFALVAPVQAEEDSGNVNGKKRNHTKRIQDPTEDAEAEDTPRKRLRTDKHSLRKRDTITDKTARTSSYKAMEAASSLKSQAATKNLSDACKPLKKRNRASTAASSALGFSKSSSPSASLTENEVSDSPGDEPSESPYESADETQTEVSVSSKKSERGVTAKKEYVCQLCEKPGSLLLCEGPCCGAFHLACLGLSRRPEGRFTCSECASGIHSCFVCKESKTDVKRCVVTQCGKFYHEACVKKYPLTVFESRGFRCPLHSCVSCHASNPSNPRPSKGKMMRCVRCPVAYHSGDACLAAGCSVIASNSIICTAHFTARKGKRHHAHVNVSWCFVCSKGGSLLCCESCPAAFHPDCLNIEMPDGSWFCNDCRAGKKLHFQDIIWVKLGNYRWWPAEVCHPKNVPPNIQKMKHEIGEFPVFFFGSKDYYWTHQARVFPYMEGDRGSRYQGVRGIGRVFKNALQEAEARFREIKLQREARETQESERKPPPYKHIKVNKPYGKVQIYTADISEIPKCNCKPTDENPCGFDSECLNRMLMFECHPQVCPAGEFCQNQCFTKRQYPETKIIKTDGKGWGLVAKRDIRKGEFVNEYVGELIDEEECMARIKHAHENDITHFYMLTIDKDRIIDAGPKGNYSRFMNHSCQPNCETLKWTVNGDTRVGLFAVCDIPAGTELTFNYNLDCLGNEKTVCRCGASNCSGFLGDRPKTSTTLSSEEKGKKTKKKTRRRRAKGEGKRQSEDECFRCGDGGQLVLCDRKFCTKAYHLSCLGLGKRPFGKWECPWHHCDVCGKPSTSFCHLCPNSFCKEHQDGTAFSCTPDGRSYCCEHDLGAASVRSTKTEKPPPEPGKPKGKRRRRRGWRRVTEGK
# [9] = biological target: Glutathione-S-transferase (Schistosoma japonicum, UniProt Q26513); test: GST-antibody interaction or FRET quenching – biochemical, TR-FRET, artefact control for Vif-APOBEC3G degradation inhibitor project, dose response (AID 1117362); type: functional
# [10] = viability loss in THP-1 monocytes – THP-1 cells, cytotoxicity control for Vif-APOBEC3G degradation inhibitor project, dose response (AID 1117359); type: functional; conditions: THP-1
# [11] = biological target: T3, Polyadenylate-binding protein 1 (Homo sapiens, UniProt P11940); test: MLLE domain peptide-binding blockers, IC50 – biochemical, fluorescence polarization, FITC-PAM2 peptide, dose response (AID 602259); type: functional; conditions: read-out: IC50_Mean
# [12] = biological target: T4, Zinc finger protein mex-5 (Caenorhabditis elegans, UniProt Q9XUB2); test: potency of MEX-5 RNA-binding blockers – biochemical, C. elegans, fluorescence polarization, dose response (AID 1960)
# T4 sequence (Q9XUB2 whole entry): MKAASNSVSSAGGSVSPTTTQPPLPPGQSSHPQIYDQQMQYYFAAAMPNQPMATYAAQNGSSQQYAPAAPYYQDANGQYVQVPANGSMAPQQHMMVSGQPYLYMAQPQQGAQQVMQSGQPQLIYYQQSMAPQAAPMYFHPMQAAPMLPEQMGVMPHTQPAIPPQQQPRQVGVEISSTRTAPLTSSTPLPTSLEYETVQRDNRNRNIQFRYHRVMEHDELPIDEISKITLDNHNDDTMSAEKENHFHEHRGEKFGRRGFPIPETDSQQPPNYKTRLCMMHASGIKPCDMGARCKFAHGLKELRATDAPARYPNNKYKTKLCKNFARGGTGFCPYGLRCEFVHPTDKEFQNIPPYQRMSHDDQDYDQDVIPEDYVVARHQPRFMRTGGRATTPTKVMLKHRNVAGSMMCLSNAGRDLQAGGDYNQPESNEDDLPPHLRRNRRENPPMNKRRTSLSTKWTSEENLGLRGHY
# [13] = biological target: T5, RNA-binding protein pos-1 (Caenorhabditis elegans, UniProt G5EF15); test: disruptors of C. elegans POS-1 RNA interaction – biochemical, fluorescence polarization, dose response (AID 1964);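 note: purified POS-1 fused to maltose binding protein made in E. coli; potency of compounds blocking POS-1 binding to fluorescent RNA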
# T5 sequence (G5EF15 whole entry): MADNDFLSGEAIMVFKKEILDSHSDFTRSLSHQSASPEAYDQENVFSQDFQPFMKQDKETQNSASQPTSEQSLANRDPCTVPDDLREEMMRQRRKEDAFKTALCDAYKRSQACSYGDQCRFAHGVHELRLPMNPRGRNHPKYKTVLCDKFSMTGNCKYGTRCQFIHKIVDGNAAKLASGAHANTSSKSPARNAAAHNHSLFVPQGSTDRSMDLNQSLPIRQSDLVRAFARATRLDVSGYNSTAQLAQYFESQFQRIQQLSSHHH
# [14] = biological target: T3, Polyadenylate-binding protein 1; test: MLLE binding blockers, Cy5 peptide tracer – biochemical, fluorescence polarization, Cy5-PAM2 peptide, secondary, miRNA deadenylation inhibitor project, dose response (AID 602260); type: functional; conditions: read-out: IC50_Mean
# [15] = M. tuberculosis H37Rv growth inhibitors, H37Rv strain (AID 1626); type: functional
# [16] = biological target: Mannose-6-phosphate isomerase (Homo sapiens, UniProt P34949); test: MPI inhibition at elevated mannose 6-phosphate – biochemical, fluorescence intensity, high mannose 6-phosphate, primary screen (AID 1220)
# [17] = test system: Vero; test: mammalian cell viability reduction – secondary assay, cytotoxicity control for West Nile virus antiviral project, dose response (AID 1650); type: functional; conditions: Chlorocebus sabaeus
# [18] = Trypanosoma cruzi growth suppression in host cells – NIH3T3 host cells, beta-gal luminescence, confirmation (AID 2044); type: functional, cell-based;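 note: intracellular parasites grown in NIH/3T3 mouse fibroblasts as host cells; luminescent beta-galactosidase reporter signal from transgenic T. cruzi replicating inside host cells; inhibitors lower the luminescence signal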
# [19] = NIH3T3 cell viability loss – ATP luminescence, mouse fibroblasts, counter-screen, dose response (AID 2010); type: functional, cell-based;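 note: cells exposed to compound for about 90 hours before reading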
# [20] = Luminescence-based dose response cell-based high throughput screening assay for cytotoxic compounds using the IEC-6 intestinal epithelial cell line. [Related pubchem assays: 1858 (Summary AID.), 1825 (Counterscreen.), 1907 (Confirmation screen.)]; type: functional
# [21] = biological target: T6, Corticotropin-releasing factor receptor 2/Corticotropin-releasing factor-binding protein (Homo sapiens, UniProt P24387+Q13324); test: activators of CRF receptor 2 with binding protein – uHTS hits, confirmation (AID 602473); type: functional; conditions: read-out: EC50_Mean
# T6 sequence (Q13324 whole entry): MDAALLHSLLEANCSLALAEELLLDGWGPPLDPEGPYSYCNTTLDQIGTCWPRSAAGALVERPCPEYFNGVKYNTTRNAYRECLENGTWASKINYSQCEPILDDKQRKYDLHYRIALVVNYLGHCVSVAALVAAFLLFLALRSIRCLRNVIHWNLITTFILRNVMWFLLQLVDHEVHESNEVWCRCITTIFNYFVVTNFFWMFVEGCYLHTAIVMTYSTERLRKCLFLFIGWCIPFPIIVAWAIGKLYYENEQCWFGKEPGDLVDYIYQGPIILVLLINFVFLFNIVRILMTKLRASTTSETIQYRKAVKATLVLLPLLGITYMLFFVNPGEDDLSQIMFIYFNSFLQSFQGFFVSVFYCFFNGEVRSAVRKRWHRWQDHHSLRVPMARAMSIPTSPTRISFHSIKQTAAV
# T6 sequence (P24387 whole entry): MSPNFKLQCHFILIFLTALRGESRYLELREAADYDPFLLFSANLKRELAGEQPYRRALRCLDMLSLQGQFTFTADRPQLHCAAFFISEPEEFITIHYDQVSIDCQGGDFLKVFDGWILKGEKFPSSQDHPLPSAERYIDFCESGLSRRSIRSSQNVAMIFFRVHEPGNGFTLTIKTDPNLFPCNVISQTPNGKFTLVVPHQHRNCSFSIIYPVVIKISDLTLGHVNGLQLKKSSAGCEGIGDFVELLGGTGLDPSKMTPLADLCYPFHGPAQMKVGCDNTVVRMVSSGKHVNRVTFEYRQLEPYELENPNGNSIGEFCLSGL
# [22] = biological target: Peroxisome proliferator-activated receptor gamma/Nuclear receptor corepressor 2 (Homo sapiens, UniProt P37231+Q9Y618); test: Counterscreen for NR2E3 inverse agonists: TR-FRET-based biochemical high throughput dose response assay to identify inverse agonists of the interaction between peroxisome proliferator-activated receptor gamma (PPARg) and nuclear receptor co-repressor 2 (NCOR2).; type: functional
# [23] = biological target: Photoreceptor-specific nuclear receptor (Homo sapiens, UniProt Q9Y5X4); test: ligands suppressing NR2E3 nuclear receptor activity – biochemical, TR-FRET, dose response (AID 463256); type: functional
# Voltage-gated inwardly rectifying potassium channel KCNH2, sequence (Q12809 whole entry): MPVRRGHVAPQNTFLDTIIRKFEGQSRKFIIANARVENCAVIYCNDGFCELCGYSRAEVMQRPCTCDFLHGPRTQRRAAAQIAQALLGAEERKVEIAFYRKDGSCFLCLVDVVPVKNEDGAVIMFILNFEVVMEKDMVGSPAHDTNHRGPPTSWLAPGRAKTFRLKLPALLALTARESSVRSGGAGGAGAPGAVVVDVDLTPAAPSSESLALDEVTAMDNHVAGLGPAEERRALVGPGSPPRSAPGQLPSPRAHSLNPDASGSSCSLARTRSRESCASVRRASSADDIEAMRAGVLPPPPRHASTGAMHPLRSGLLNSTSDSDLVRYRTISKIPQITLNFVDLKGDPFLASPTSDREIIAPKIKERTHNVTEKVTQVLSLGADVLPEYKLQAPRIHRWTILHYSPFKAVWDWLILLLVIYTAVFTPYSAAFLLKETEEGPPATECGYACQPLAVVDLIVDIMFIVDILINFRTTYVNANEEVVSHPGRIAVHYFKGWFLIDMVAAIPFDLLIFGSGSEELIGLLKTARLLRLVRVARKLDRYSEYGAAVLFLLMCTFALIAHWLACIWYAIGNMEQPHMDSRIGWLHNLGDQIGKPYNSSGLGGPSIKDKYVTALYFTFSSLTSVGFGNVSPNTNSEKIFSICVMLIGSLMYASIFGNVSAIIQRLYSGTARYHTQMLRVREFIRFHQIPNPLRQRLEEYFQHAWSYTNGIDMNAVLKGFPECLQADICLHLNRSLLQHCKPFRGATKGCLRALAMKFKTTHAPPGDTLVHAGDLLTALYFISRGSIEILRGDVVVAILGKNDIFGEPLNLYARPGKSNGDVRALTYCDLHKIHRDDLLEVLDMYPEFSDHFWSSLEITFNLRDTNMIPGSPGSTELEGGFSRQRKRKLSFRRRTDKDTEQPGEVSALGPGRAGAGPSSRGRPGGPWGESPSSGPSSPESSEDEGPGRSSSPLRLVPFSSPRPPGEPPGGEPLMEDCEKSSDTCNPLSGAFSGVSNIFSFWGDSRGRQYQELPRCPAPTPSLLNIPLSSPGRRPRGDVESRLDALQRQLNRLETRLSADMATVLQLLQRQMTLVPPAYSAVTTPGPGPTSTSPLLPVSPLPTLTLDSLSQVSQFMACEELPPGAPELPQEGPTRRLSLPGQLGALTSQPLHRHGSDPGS
# Glutathione-S-transferase, sequence (Q26513 whole entry): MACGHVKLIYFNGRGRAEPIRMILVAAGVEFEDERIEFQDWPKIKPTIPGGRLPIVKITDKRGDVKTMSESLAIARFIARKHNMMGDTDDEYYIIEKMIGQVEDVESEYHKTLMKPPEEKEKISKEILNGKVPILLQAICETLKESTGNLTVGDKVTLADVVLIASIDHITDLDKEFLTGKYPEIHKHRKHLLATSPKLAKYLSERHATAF
# T3 sequence (P11940 whole entry, the tested form may be a part): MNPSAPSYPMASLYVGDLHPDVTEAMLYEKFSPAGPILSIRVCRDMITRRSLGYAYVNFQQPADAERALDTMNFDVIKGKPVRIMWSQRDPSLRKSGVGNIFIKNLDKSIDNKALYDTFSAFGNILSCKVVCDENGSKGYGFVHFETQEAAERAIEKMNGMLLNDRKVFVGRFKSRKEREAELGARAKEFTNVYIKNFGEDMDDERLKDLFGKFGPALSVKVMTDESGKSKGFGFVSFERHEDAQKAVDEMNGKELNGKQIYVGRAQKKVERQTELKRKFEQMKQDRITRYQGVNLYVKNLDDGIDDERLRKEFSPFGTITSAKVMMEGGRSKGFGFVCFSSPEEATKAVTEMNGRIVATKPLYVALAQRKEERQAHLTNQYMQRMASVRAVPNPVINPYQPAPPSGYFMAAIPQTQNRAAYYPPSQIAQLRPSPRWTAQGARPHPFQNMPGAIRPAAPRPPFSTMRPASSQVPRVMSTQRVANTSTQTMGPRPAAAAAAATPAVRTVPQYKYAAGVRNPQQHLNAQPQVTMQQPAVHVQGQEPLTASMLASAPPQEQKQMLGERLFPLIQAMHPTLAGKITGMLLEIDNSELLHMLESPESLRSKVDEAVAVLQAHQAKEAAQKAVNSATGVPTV
# Peroxisome proliferator-activated receptor gamma/Nuclear receptor corepressor 2, sequence (P37231 whole entry): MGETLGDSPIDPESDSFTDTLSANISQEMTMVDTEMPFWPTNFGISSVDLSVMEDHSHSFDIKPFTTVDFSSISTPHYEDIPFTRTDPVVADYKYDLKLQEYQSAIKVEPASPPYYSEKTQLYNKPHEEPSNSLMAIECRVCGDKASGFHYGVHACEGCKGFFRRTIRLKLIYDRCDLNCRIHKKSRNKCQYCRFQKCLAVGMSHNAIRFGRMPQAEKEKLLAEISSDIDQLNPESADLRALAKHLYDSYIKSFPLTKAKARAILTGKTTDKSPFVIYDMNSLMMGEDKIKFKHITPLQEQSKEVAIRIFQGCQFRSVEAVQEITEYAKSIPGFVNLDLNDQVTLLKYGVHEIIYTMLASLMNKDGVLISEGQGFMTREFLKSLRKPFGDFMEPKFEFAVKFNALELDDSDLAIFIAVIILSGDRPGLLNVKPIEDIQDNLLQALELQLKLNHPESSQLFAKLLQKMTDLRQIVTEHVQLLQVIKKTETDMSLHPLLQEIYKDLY
# Peroxisome proliferator-activated receptor gamma/Nuclear receptor corepressor 2, sequence (Q9Y618 whole entry): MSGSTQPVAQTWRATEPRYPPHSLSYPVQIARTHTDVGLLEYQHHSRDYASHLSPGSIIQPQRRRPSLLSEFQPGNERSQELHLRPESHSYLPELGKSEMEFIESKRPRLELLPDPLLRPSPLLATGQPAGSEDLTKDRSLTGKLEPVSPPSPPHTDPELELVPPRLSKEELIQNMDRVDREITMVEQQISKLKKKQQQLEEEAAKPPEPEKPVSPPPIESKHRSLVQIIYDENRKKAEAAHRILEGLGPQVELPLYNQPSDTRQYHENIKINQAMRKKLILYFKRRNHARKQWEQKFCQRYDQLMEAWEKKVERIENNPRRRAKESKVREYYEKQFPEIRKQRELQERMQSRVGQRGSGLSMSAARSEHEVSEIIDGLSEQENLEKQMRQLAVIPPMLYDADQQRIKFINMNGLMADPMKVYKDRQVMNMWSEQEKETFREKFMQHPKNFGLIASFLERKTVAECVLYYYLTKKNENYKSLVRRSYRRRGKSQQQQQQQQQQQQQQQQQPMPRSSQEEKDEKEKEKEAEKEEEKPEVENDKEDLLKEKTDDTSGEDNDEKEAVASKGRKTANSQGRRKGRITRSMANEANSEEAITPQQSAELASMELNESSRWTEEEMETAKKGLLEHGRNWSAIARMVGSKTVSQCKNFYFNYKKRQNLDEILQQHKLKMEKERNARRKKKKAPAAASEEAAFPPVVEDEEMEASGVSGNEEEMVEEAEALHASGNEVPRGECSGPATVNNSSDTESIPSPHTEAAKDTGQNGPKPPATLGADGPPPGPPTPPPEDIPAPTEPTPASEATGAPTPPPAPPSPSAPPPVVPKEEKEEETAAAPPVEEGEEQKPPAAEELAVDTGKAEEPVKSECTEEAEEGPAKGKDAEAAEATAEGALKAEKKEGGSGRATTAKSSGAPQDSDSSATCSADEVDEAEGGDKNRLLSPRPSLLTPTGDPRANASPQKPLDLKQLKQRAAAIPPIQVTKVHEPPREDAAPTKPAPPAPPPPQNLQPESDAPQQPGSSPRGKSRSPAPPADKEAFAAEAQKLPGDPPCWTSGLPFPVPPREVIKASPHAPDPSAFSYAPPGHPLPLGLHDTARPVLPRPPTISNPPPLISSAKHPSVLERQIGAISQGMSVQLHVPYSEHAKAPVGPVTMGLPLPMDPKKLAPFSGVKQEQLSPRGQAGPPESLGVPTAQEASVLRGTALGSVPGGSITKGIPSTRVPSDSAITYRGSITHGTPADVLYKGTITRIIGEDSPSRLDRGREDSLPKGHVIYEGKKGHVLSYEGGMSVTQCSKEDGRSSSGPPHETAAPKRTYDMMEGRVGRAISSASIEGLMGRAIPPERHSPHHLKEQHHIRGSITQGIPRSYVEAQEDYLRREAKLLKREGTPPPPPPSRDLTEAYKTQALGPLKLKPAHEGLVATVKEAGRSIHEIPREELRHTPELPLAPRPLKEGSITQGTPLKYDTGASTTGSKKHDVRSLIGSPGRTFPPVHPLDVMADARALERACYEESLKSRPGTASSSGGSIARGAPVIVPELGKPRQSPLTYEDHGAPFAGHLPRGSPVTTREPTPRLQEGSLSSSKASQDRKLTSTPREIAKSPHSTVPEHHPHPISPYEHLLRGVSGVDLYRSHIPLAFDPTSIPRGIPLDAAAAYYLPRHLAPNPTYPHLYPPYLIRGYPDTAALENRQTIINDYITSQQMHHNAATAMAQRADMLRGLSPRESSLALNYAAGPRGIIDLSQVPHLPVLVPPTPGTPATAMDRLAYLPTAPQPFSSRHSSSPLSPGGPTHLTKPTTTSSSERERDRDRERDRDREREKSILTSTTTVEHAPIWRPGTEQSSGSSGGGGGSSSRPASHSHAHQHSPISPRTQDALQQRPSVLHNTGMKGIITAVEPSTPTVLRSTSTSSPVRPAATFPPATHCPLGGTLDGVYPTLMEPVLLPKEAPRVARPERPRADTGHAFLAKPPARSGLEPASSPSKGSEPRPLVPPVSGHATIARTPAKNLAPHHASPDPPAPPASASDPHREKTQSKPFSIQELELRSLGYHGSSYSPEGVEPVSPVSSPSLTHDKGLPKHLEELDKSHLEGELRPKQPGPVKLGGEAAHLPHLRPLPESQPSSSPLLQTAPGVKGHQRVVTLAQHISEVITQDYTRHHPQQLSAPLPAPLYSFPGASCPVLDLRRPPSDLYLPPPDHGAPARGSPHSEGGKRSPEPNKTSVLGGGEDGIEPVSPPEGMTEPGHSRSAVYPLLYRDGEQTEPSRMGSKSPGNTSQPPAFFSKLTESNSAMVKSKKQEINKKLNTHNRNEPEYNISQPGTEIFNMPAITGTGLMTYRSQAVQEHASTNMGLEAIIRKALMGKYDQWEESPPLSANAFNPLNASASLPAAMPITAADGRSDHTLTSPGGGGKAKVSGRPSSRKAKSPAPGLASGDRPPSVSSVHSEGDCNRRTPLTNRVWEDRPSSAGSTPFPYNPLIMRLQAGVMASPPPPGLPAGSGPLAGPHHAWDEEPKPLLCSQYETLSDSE
structure (smiles),measurement,setting,value
CCOc1ccc2nc(Nc3nc4c(c(=O)[nH]3)CCC4)nc(C)c2c1,IC50,[1],36.8 µM (active)
COc1ccc2c3c(n(C)c2c1)[C@@H](CO)N(C(=O)c1ccc(F)cc1)CC31CN(C(=O)Nc2ccc(F)cc2)C1,AC50,[2],1.22 µM (active)
same,AC50,[3],0.999 µM (active)
same,AC50,[4],1.26 µM (active)
same,AC50,[5],1.79 µM (active)
CCOc1ccccc1NC(=S)NC(=O)c1ccco1,EC50,[6],1.25 µM (active)
COc1cccc(C#Cc2ccc([C@H]3[C@@H](CO)N(C(=O)C4CCC4)[C@H]3C#N)cc2)c1,AC50,[2],0.636 µM (active)
same,AC50,[3],1.41 µM (active)
same,AC50,[4],1.17 µM (active)
same,AC50,[5],1.2 µM (active)
N#C[C@@H]1[C@H](c2ccccc2)[C@H](CO)N1C(=O)Nc1cccc(F)c1,AC50,[7],0.968 µM (active)
CCn1c(C)cc(=S)c2ccccc21,AC50,[8],17 µM (active)
same,IC50,[9],> 100 µM (active)
same,CC50,[10],> 40 µM (active)
same,IC50,[11],> 66 µM (inactive)
same,EC50,[12],> 300 µM (not active)
same,EC50,[13],> 300 µM (not active)
same,IC50,[14],> 66 µM (inactive)
COc1ccc(NC(C#N)c2ccc(OC)cc2)cc1 (stereo not given),IC50,[15],> 100 µM (active)
COc1ccc(NC(=O)N2c3ccc(OC)cc3C(C)=CC2(C)C)cc1,IC50,[16],> 50 µM (not active)
same,IC50,[9],> 100 µM (active)
same,CC50,[10],> 40 µM (active)
Cc1ccc(C(OCC(O)CNC(C)c2ccccc2)c2ccccc2)cc1 (stereo not given),CC50,[17],18.9 µM (active)
O=[N+]([O-])c1ccc(NC2CCN(Cc3ccccc3)CC2)c2ccncc12,CC50,[17],> 100 µM (active)
same,EC50,[18],0.811 µM (active)
same,EC50,[19],> 60 µM (not active)
C=C1[C@@H](C)[C@H]2[C@H](Cc3ccccc3)NC(=O)[C@]23OC(=O)/C=C/[C@H](O)CCC[C@@H](C)C/C=C/[C@H]3[C@@H]1O [CYTOCHALASIN B],IC50,[20],0.424 µM (active)
Clc1ccc(-c2ccc(/C=N/c3ccc(N4CCOCC4)cc3)o2)c(Cl)c1,EC50,[21],6.68 µM (active)
same,IC50,[15],> 100 µM (active)
CNC(=O)c1ccc(NC(=O)CN2c3cccc4cccc(c34)S2(=O)=O)cc1,EC50,[6],7.62 µM (active)
C[C@@H]1CN([C@H](C)CO)C(=O)c2cc(NC(=O)Nc3ccc4c(c3)OCO4)ccc2O[C@@H](C)CCCCO[C@H]1CN(C)S(=O)(=O)c1ccccc1,AC50,[7],2.22 µM (active)
CC(=O)c1ccc(C(=O)Nc2sc3c(c2C(N)=O)CCN(Cc2ccccc2)C3)cc1,IC50,[22],4.93 µM (active)
same,EC50,[12],> 300 µM (inconclusive)
same,EC50,[13],> 300 µM (not active)
same,IC50,[23],6 µM (active)
